Source: publication PMC9021288 (Nature Communications, 2022)
Values joined by “and” are separate entries in the source; they are usually repeats but may differ in a detail not shown here. Equal values may be shown once. “Also recorded” adds a separate entry of the source. Read-outs that look alike come from different tables or passages of the source.

Key:
[1] = 7-day PK toxicity rat study; assay type: in vivo, Wistar Han rats; parameters: AUC(0 - t) / Cmax / Concentration (PK study): unit not given here; conditions: for Concentration (PK study): Males 60 mg/kg/day; for Concentration (PK study) / Liver weight: PK study; for Liver weight: individual animals
Text: See the summary of the study design in Supplementary Table 31. Nine-week-old Wistar (Crl:WI (Han)) rats were obtained from Charles River Laboratories (Domaine des Oncins, Saint-Germain-Nuelles, France). […] Animals were examined daily for any altered clinical signs, body weights, and food consumption. Blood samples were taken at different timepoints after the test item administration, and toxicokinetic exposure assessed under the defined experimental conditions and analyzed using Phoenix (version 6.4 and 1.4) (Supplementary Table 32). Measurements included hematology and clinical chemistry measurements. Animals were euthanized and necropsied at the end of the dosing period. At necropsy, major organ systems and tissues were collected and weighed and then examined for gross lesions as well as for microscopic changes.

Caco-2 = Caco-2 permeability assay; conditions: pH 7.4/7.4
[2] = Plasma protein binding, human
[3] = Blood to plasma ratio, rat
[4] = tested on: P. falciparum field isolates from Uganda; assay: Ex vivo growth inhibition assay, Uganda field isolates; assay type: cell-based, Plasmodium falciparum; conditions: N = 230 isolates
Protocol: An ex vivo growth inhibition assay was performed on fresh clinical P. falciparum isolates in Uganda. […] Parasite density was quantified by fluorescence after incubation with SYBR Green lysis buffer measured on a BMG Fluostar Optima plate reader, as previously described.

CYP1A2 = assay: CYP induction (mRNA) in human hepatocytes; assay type: in vitro ADME; conditions: for CYP1A2 mean fold induction: per donor
Protocol: (§1) Positive control inducers (omeprazole for CYP1A2, phenobarbital for CYP2B6, and rifampicin for CYP3A4), were incubated alongside the test compound. For mRNA assessment, cells were lysed and resultant samples analyzed using an ABI 7900 HT real-time PCR system.

CYP3A4 = assay: CYP induction (mRNA) in human hepatocytes; assay type: in vitro ADME; conditions: for CYP3A4 mean fold induction: per donor
Protocol: as §1

CYP2B6 = assay: CYP induction (mRNA) in human hepatocytes; assay type: in vitro ADME; conditions: for CYP2B6 mean fold induction: per donor
Protocol: as §1

[5] = Stability under stress storage conditions (XRPD); assay type: physicochemical; conditions: 40 °C, 75% RH open and closed container or 60 °C, one month
[6] = tested on: P. falciparum Dd2-B2 and NF54-HGL; assay: In vitro selection of drug-resistant parasites; assay type: cell-based, Plasmodium falciparum
Protocol: Drug media was changed daily until cultures were cleared and every other day subsequently. […] Recrudescence was monitored by flow cytometry on an Accuri C6 (BD Biosciences) using BD C6 Plus for 60 days using SYBR Green and MitoTracker Deep Red FM (Life Technologies) as nuclear stain and vital dye, respectively, and data were analyzed using FlowJo (Supplementary Fig. 23). […] Whole-genome sequencing was performed to test for single nucleotide polymorphisms (SNPs) or copy number variations.

C[C@@H](CNC(=O)[C@H](O)C(C)(C)CO)NC(=O)c1cc(F)c(F)cc1F [MMV693183]
Concentration (PK study) ([1]; Day 3, 0.5 hr): 8790 and 10300 and 7140 | Concentration (PK study) ([1]; Day 3, 1 hr): 5740 and 6580 and 9120 | Concentration (PK study) ([1]; Day 4, 1 hr): 4970 and 6410 and 5310 | Concentration (PK study) ([1]; Day 4, 2 hr): 2150 | Concentration (PK study) ([1]; Day 5, 0.5 hr): 4090 and 5780 and 6430 | Concentration (PK study) ([1]; Day 5, 1 hr): 2810 and 3810 and 4490 | Concentration (PK study) ([1]; Day 5, 2 hr): 833 | Concentration (PK study) ([1]; Day 6, 0.5 hr): 3190 and 3990 and 2700 | Concentration (PK study) ([1]; Day 6, 1 hr): 2440 and 2560 and 2960 | Concentration (PK study) ([1]; Day 6, 2 hr): 793 | Concentration (PK study) ([1]; Day 7, 0.5 hr): 4630 and 4120 and 3030 | Concentration (PK study) ([1]; Day 7, 1 hr): 2360 and 3070 and 4490 | Concentration (PK study) ([1]; Day 7, 2 hr): 852 | Liver weight ([1]; females, 60 mg/kg/day): 7.845 g and 6.555 g and 7.19 g and 6.045 g and 7.197 g and 6.726 g and 6.103 g and 6.171 g and 6.163 g and 5.278 g and 7.062 g and 7.17 g and 6.744 g and 6.318 g and 6.169 g and 6.575 g and 6.983 g and 6.456 g | Liver weight ([1]; females, 200 mg/kg/day): 8.221 g and 8.493 g and 7.964 g and 8.859 g and 9.347 g and 7.27 g and 8.193 g and 8.745 g and 8.636 g and 8.349 g and 8.711 g and 8.055 g and 7.728 g and 8.238 g and 8.802 g and 8.338 g and 9.482 g | Liver weight ([1]; males, 60 mg/kg/day): 11.319 g and 10.601 g and 11.37 g and 12.154 g and 11.768 g and 12.437 g and 11.213 g and 11.313 g and 11.86 g and 10.827 g and 10.923 g and 10.921 g and 10.76 g and 12.104 g and 11.841 g and 10.238 g and 12.991 g and 11.082 g | Liver weight ([1]; males, 200 mg/kg/day): 14.027 g and 16.129 g and 13.438 g and 12.573 g and 14.48 g and 14.447 g and 11.375 g and 14.317 g and 13.757 g and 13.38 g and 14.677 g and 13.312 g and 12.998 g and 12.7 g and 12.791 g and 13.174 g and 13.587 g and 12.628 g | decrease of exposure at later timepoints ([1]; day 3 to day 7 vs day 1): up to 11 fold | Increased mitoses, hepatocellular: animals affected ([1]; in order: females 60, 200 mg/kg/day): 1 | Hypertrophy, centrilobular: animals affected ([1]; in order: males 60, 200 (n=18), females 60 (n=18), 200 (n=17) mg/kg/day): 18 and 14 and 17 | Extramedullary hematopoiesis: animals affected ([1]; in order: males 60, 200, females 60, 200 mg/kg/day): 10 and 14 and 9 and 13 | Necrosis, hepatocellular: animals affected ([1]; in order: males 60, females 60, 200 mg/kg/day): 1 | Average Papp A to B (Caco-2): 2.9e-06 s⁻¹ | Average Papp B to A (Caco-2): 1.35e-05 s⁻¹ | Efflux ratio (Caco-2): 4.7 | plasma protein binding [2]: 52% | B:P [3]: 0.91 | IC50 ([4]; read-out: IC50 maximum): 11 nM | IC50 ([4]; read-out: IC50 minimum): 0.3 nM | CYP1A2 mean fold induction (CYP1A2; 5 µM): 1.48 and 1.11 and 1.38 | CYP1A2 mean fold induction (CYP1A2; 15 µM): 1.04 and 1.07 and 0.844 | CYP1A2 mean fold induction (CYP1A2; 50 µM): 0.874 and 0.824 and 0.795 | CYP1A2 mean fold induction (CYP1A2; 150 µM): 0.704 and 0.613 and 0.609 | CYP1A2 mean fold induction (CYP1A2; 250 µM): 0.586 and 0.436 | CYP1A2 mean fold induction (CYP1A2; 500 µM): 0.357 and 0.496 and 0.293 | CYP1A2 induction (CYP1A2; up to 500 µM): did not induce CYP1A2 nor CYP2B6 | CYP3A4 mean fold induction (CYP3A4; 5 µM): 1.22 and 1.03 and 1.21 | CYP3A4 mean fold induction (CYP3A4; 15 µM): 0.824 and 0.905 and 0.816 | CYP3A4 mean fold induction (CYP3A4; 50 µM): 0.779 and 0.500 and 1.26 | CYP3A4 mean fold induction (CYP3A4; 150 µM): 1.19 and 0.477 and 1.98 | CYP3A4 mean fold induction (CYP3A4; 250 µM): 0.665 and 2.86 | CYP3A4 mean fold induction (CYP3A4; 500 µM): 3.6 and 3.63 and 1.49 and 3.16 | concentration at which CYP3A4 was induced (CYP3A4; 72 h, three donors): greater than 150 µM | CYP2B6 mean fold induction (CYP2B6; 5 µM): 1.75 and 0.995 and 1.18 | CYP2B6 mean fold induction (CYP2B6; 15 µM): 1.38 and 0.951 and 1.660 | CYP2B6 mean fold induction (CYP2B6; 50 µM): 0.959 and 0.828 and 0.886 | CYP2B6 mean fold induction (CYP2B6; 150 µM): 0.663 and 0.721 and 0.727 | CYP2B6 mean fold induction (CYP2B6; 250 µM): 0.667 and 0.582 | CYP2B6 mean fold induction (CYP2B6; 500 µM): 0.495 and 0.699 and 0.325 | CYP2B6 induction (CYP2B6; up to 500 µM): did not induce CYP1A2 nor CYP2B6 | stability after storage under stress conditions [5]: chemically stable; also recorded: no form-change | minimum inoculum for resistance development [6]: 10^9 | Frequency (# of parasite positive flasks or wells) ([6]; 1x10^5 Dd2-B2, 15 nM): 0/24 | Frequency (# of parasite positive flasks or wells) ([6]; 1x10^7 Dd2-B2, 15-22 nM / 10.5-14 nM): 0/3 | Frequency (# of parasite positive flasks or wells) ([6]; 1x10^8 Dd2-B2, 10.5-14 nM): 0/3 | Frequency (# of parasite positive flasks or wells) ([6]; 1x10^9 Dd2-B2, 12-27 nM): 3/3 | Frequency (# of parasite positive flasks or wells) ([6]; NF54, 7 nM): 2/2
